Assay [1] concerns the target Acetylcholinesterase (Electrophorus electricus) (UniProt O42275). To be noted: at 2 mg/mL.
Description: Inhibition of electric eel AChE at 2 mg/ml by Ellman's method
Assay [2] addresses Cholinesterase (Equus caballus) (UniProt P81908). Particulars: at 2 mg/mL.
Description: Inhibition of horse BChE at 2 mg/ml by Ellman's method

Chain of Cholinesterase (Equus caballus) (P81908 whole entry): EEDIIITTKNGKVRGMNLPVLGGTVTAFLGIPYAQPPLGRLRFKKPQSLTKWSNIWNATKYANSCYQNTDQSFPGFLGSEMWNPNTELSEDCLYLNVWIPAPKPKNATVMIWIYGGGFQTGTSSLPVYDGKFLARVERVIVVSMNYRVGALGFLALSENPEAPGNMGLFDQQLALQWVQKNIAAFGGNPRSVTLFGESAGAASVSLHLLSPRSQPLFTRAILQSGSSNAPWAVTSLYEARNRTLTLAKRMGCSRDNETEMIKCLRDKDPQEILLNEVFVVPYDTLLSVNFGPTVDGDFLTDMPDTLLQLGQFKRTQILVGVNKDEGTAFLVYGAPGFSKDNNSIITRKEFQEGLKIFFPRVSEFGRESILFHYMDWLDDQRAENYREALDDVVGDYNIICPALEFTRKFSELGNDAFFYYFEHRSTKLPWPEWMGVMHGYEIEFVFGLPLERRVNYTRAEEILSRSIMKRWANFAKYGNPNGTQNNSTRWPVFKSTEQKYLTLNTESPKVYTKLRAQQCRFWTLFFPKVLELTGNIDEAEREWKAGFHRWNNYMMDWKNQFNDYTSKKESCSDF
Chain of Acetylcholinesterase (Electrophorus electricus) (O42275 24-633 limits assumed): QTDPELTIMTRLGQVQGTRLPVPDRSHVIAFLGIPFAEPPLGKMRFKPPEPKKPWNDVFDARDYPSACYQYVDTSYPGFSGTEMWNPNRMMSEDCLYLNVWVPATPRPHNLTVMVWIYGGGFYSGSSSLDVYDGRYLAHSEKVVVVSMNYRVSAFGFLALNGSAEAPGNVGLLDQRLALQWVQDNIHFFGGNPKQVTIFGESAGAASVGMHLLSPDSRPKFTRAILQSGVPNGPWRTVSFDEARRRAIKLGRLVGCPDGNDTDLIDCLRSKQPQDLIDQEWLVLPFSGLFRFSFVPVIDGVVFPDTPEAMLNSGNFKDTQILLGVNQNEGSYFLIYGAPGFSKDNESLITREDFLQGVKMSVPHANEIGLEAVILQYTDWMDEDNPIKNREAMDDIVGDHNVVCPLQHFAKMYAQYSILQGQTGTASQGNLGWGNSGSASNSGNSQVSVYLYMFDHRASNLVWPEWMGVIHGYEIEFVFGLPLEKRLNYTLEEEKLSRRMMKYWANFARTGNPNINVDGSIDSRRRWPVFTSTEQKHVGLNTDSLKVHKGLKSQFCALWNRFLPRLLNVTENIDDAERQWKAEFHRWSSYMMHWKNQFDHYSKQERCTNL

One may read the inhibition as the relative decrease from the control value, in per cent. As for `COc1cc([C@@H]2c3cc4c(cc3[C@@H](O)[C@H]3COC(=O)[C@H]23)OCO4)cc(OC)c1O`, the values for the inhibition in assay [1] and in assay [2] were 6.34% and -7.02%, respectively.
In the case of `COc1cc(O)c2c(=O)c(O)c(-c3ccc(O)c(O)c3)oc2c1`, the figures for the inhibition in assay [1] and in assay [2] were 23.7% and 3.5%, respectively.
As to `CC(=O)N[C@H]1CN2CC[C@H](O)[C@@H]2[C@@H](O)[C@@H]1O`, the inhibition in assay [1] was determined as 2.39%; in assay [2], 9.19%.
As to `COc1cc(=O)oc(/C=C/C=C/C=C/C(C)=C/[C@@]2(C)O[C@H](C)[C@](C)(O)[C@H]2O)c1C`, the inhibition came to 27.1% in assay [1] and 16.6% in assay [2].
In the case of `O=c1c(-c2ccc(O)cc2)coc2cc(O[C@@H]3O[C@H](CO)[C@@H](O)[C@H](O)[C@H]3O)ccc12`, the inhibition in assay [1] was 17.6%; in assay [2] it was -0.76%.
With `C[C@H]1[C@H](C)CC[C@]2(C(=O)O)CC[C@]3(C)C(=CC[C@@H]4[C@@]5(C)C[C@@H](O)[C@H](O)[C@@](C)(CO)[C@@H]5CC[C@]43C)[C@H]12`, the figures for the inhibition in assay [1] and in assay [2] were 3.99% and -8.64%, respectively.
`CN(C)CCc1ccc(O)cc1`: the inhibition in assay [1] is -4.35%; in assay [2], -2.06%.
Consider `C/C=C1/C[C@@H](C)[C@@](C)(O)C(=O)OCC2=CCN3CC[C@@H](OC1=O)[C@@H]23`, for which the values for the inhibition in assay [1] and in assay [2] were 7.46% and 19.2%, respectively.
Regarding `C=C1[C@@H](C)[C@H]2[C@H](Cc3ccccc3)NC(=O)[C@]23OC(=O)/C=C/[C@H](O)CCC[C@@H](C)C/C=C/[C@H]3[C@@H]1O`, the inhibition was -2.03% in assay [1] and 8.94% in assay [2].
Consider `CN1CCc2cc3c(cc2[C@H]1[C@@H]1OC(=O)c2c1ccc1c2OCO1)OCO3`, for which the inhibition in assay [1] came to 20.7%; in assay [2] it was 0.63%.
As for `C=C1[C@@H](C)[C@H]2[C@H](Cc3ccccc3)NC(=O)[C@]23[C@H](OC(C)=O)/C=C/[C@@](C)(O)C(=O)[C@@H](C)C/C=C/[C@H]3[C@@H]1O`, the inhibition in assay [1] is -2.15%; in assay [2], 3.92%.
`O=C(/C=C/c1ccc(O)cc1)CC(=O)/C=C/c1ccc(O)cc1`: the inhibition came to 2% in assay [1] and 7.13% in assay [2].
Regarding `COC(=O)[C@H]1[C@H]2C[C@H]3c4[nH]c5cc(OC)ccc5c4CCN3C[C@H]2C[C@@H](OC(=O)c2cc(OC)c(OC)c(OC)c2)[C@@H]1OC`, the inhibition in assay [1] is -2.45%; in assay [2] it was -8.07%.
Consider `COc1cc(-c2oc3cc(O)cc(O)c3c(=O)c2OC2O[C@H](CO)[C@@H](O)[C@H](O)[C@H]2O)cc(OC)c1O` (stereo partly specified), for which the inhibition in assay [1] was determined as 3.25%; in assay [2], 2.12%.
Regarding `CN1C(=O)C[C@H](C(=O)O)[C@H]1c1cccnc1` (relative stereo), the figures for the inhibition in assay [1] and in assay [2] were -2.93% and -4.39%, respectively.
As to `COc1cc(CCC(C)=O)ccc1O`, the inhibition in assay [1] was -5.32%; in assay [2] it was 10.8%.
Take `Oc1cc(O)cc(/C=C/c2ccc(O)c(O)c2)c1`: the inhibition in assay [1] was found to be 17%; in assay [2] it was 2.21%.
Consider `COc1ccc2c(OC)c3ccoc3nc2c1OC`, for which the inhibition in assay [1] turned out to be 39.3%; in assay [2] it was 6.79%.
Turning to `CCCCC[C@H](O)/C=C/C1=C(CCCCCCC(=O)O)C(=O)CC1`, the inhibition in assay [1] is 15.6%; in assay [2], -1.44%.
On the same counts, the results for `O=c1c(O)c(-c2ccc(O)cc2O)oc2cc(O)cc(O)c12` are 18.1% and -3.98%.
`COc1cc2c(c(OC)c1OC)-c1ccc(OC)c(=O)cc1[C@@H](NC=O)CC2`: the inhibition in assay [1] is 23.9%; in assay [2], -0.59%.
As to `C[C@H]1O[C@@H](Oc2c(-c3cc(O)c(O)c(O)c3)oc3cc(O)cc(O)c3c2=O)[C@@H](O)[C@@H](O)[C@@H]1O`, the inhibition in assay [1] is 20.9%; in assay [2], -2.1%.
Take `CCCC(=O)O[C@@H]1[C@@H](C)[C@@]2(O)[C@@H](C=C(CO)C[C@]3(O)C(=O)C(C)=C[C@@H]23)[C@@H]2C(C)(C)[C@]12OC(=O)CCC` (stereo in doubt; form 1): the values for the inhibition in assay [1] and in assay [2] were 22.5% and 0.87%, respectively.
Take `C[N+](C)(C)CC(O)CC(=O)O` (racemic): the inhibition in assay [1] was -6.56%; in assay [2] it was -2.91%.
On to `CCOC(=O)[C@H]1O[C@@H]1C(=O)N[C@@H](CC(C)C)C(=O)NCCC(C)C`, for which the results for the inhibition in assay [1] and in assay [2] were 1.24% and -0.73%, respectively.
On to `O=C1c2ccccc2-n2c1nc1ccccc1c2=O`, for which the inhibition is 35.3% in assay [1] and -2.13% in assay [2].
In the case of `CC[C@H](C)/C=C(C)/C=C/C1=CC2=C(Cl)C(=O)[C@](C)(OC(C)=O)C(=O)C2=CO1`, the inhibition in assay [1] came out at 3.54%; in assay [2] it was 6.21%.
`CCOC(=O)C1=C[C@]2(CC)CCCN3CCc4c(n1c1ccccc41)[C@@H]32`: the inhibition in assay [1] was 12.3%; in assay [2], 29.1%.
On the same counts, the results for `CCCCC[C@H](O)/C=C/[C@@H]1[C@@H](C/C=C\CCCC(=O)O)[C@@H](O)C[C@H]1O` are 12.9% and 5.03%.
Turning to `O=c1cc(-c2ccc(O)cc2)oc2c([C@@H]3O[C@H](CO)[C@@H](O)[C@H](O)[C@H]3O)c(O)cc(O)c12`, the inhibition is 3.3% in assay [1] and 2.26% in assay [2].
Regarding `CSC(=S)NCc1c[nH]c2ccccc12`, the inhibition in assay [1] was -0.26%; in assay [2] it was -5.64%.
Take `O=c1cc(-c2ccc(O)c(OC3O[C@H](CO)[C@@H](O)[C@H](O)[C@H]3O)c2)oc2cc(OC3O[C@H](CO)[C@@H](O)[C@H](O)[C@H]3O)cc(O)c12` (stereo partly specified): the inhibition was 28.6% in assay [1] and -2.06% in assay [2].
On the same counts, the results for `CN(C)c1ccc(O)c2c1C[C@H]1C[C@H]3[C@H](N(C)C)C(O)=C(C(N)=O)C(=O)[C@@]3(O)C(O)=C1C2=O` are -0.24% and -8.62%.
On to `COc1cc(C(=O)O[C@H]2C/C(C)=C/CC/C(C)=C/[C@H](O)[C@@H]2C(C)C)ccc1O`, for which the values for the inhibition in assay [1] and in assay [2] were 23.6% and 3.49%, respectively.
As for `COc1c(O)cc2c(c1O)[C@@H]1O[C@H](CO)[C@@H](O)[C@H](O)[C@H]1OC2=O`, the inhibition is 7.33% in assay [1] and -0.62% in assay [2].
In the case of `CC1(C)CCC[C@](C)([C@H]2CC[C@]3(C)[C@@H]2[C@H](O)C[C@@H]2[C@@]4(C)CC[C@H](O)C(C)(C)[C@@H]4[C@@H](O)C[C@]23C)O1`, the inhibition came to 6.16% in assay [1] and 8.34% in assay [2].
Turning to `COc1cc([C@@H]2c3cc4c(cc3[C@@H](O[C@@H]3O[C@@H]5CO[C@@H](C)O[C@H]5[C@H](O)[C@H]3O)[C@H]3COC(=O)[C@H]23)OCO4)cc(OC)c1O`, the results for the inhibition in assay [1] and in assay [2] were -9.19% and -5.72%, respectively.
On the same counts, the results for `C[n+]1cc2c3c(ccc2c2ccc4cc5c(cc4c21)OCO5)OCO3` are 27% and 1.3%.
With `C[C@H]1[C@H](OC(=O)CCC(=O)O)O[C@@H]2O[C@@]3(C)CC[C@H]4[C@H](C)CC[C@@H]1[C@@]24OO3`, the inhibition in assay [1] is -5.55%; in assay [2], 4.77%.
`C[C@H]([C@H](O)CCC(C)(C)O)[C@H]1CC[C@@]2(O)C3=CC(=O)[C@@H]4C[C@@H](O)[C@@H](O)C[C@]4(C)[C@H]3CC[C@]12C`: the values for the inhibition in assay [1] and in assay [2] were -0.57% and -1.9%, respectively.
As to `O=c1cc(-c2ccccc2)oc2cc(O)cc(O)c12`, the inhibition in assay [1] came out at 14.6%; in assay [2], 2.93%.
Taken in the same sequence, the figures for `CC(C)C[C@H]1C(=O)N2CCC[C@H]2[C@]2(O)O[C@](NC(=O)[C@@H]3C=C4c5cccc6[nH]c(Br)c(c56)C[C@H]4N(C)C3)(C(C)C)C(=O)N12` were -0.33% and 9.94%.
Consider `O=C(CCc1ccc(O)cc1)c1c(O)cc(O)cc1O[C@@H]1O[C@H](CO)[C@@H](O)[C@H](O)[C@H]1O`, for which the inhibition in assay [1] is -6.94%; in assay [2], 5.38%.
Taken in the same sequence, the figures for `C[C@H]1C/C=C/[C@H]2[C@@H]3O[C@]3(C)[C@@H](C)[C@H]3[C@H](Cc4ccccc4)NC(=O)[C@]32OC(=O)O/C=C/[C@@](C)(O)C1=O` were 5.91% and 9.25%.
With `O=c1cc(-c2ccccc2)oc2cc(O)c(O)c(O)c12`, the inhibition in assay [1] is -3.74%; in assay [2], 15%.
On to `COc1c(C)c2c(c(O)c1C/C=C(\C)CCC(=O)O)C(=O)OC2`, for which the results for the inhibition in assay [1] and in assay [2] were -6.25% and -7.04%, respectively.
For the molecule `CO[C@H]1C=C2CCN(C)[C@H]2[C@@H]2c3cc4c(cc3C(=O)O[C@@H]21)OCO4`, the inhibition in assay [1] is 25.8%; in assay [2], -2.26%.
On to `CO[C@H](C)[C@](O)(C(=O)OCC1=CCN2CC[C@H](O)[C@@H]12)C(C)C`, for which the inhibition came to 21.3% in assay [1] and 1.48% in assay [2].
As for `COc1cc(/C=C/C(=O)c2ccc(O)cc2O)ccc1O`, the inhibition in assay [1] was 26.5%; in assay [2], -0.11%.
With `N[C@@H](Cn1ccc(=O)c(O)c1)C(=O)O`, the inhibition is 7.74% in assay [1] and 11.2% in assay [2].
On the same counts, the results for `Cc1cc2cc3c(C)cc(=O)oc3c(C)c2o1` are 14.3% and 2.42%.
Take `COc1cc(C2Oc3cc([C@H]4Oc5cc(O)cc(O)c5C(=O)[C@@H]4O)ccc3OC2CO)ccc1O` (stereo partly specified): the inhibition in assay [1] is 7.08%; in assay [2], -7.94%.
Regarding `Oc1cc(O)c2c(c1)O[C@H](c1ccc(O)c(O)c1)[C@@H](O)C2`, the inhibition in assay [1] was 7.03%; in assay [2], -5.96%.
In the case of `C[C@]12CC[C@H](O)C[C@H]1CC[C@@H]1[C@@H]2CC[C@]2(C)[C@@H](C3=CC(=O)OC3)[C@@H](O)C[C@]12O`, the figures for the inhibition in assay [1] and in assay [2] were -1.84% and 1.77%, respectively.
Consider `O=c1c(O)c(-c2cc(O)c(O)c(O)c2)oc2cc(O)cc(O)c12`, for which the inhibition in assay [1] is 4.65%; in assay [2] it was -3.14%.
With `O=c1oc2ccccc2c(O)c1Cc1c(O)c2ccccc2oc1=O`, the inhibition in assay [1] stood at 12.3%; in assay [2] it was 5.48%.
With `C/C=C/C/C=C/CCC(=O)[C@H]1O[C@H]1C(N)=O`, the inhibition is -4.02% in assay [1] and 3.38% in assay [2].
In the case of `O=c1cc(-c2ccc(O)cc2)oc2cc(OC3O[C@H](CO)[C@@H](O)[C@H](O)[C@H]3O)cc(O)c12` (stereo partly specified), the inhibition came out at 24.9% in assay [1] and 5% in assay [2].

The record behind these values is ChEMBL document CHEMBL2163249, “Exploration of natural compounds as sources of new bifunctional scaffolds targeting cholinesterases and beta amyloid aggregation: the case of chelerythrine” (Bioorg Med Chem, 2012).
